Test results: a melting point compilation (Tetko et al.; mined from patent text by program, amines drawn as free bases though some values may be those of a salt)

| melting point [°C] | SMILES |
| --- | --- |
| 52 to 53 | COC(=O)c1ccc(C(C)O)cc1 (single isomer, unassigned; (+)) |
| 200 to 201 | COc1cc(Cl)nn2c(-c3ccnc(N)c3)c(-c3ccc(F)c(C)c3)nc12 |
| 61 to 62 | O=C(CCCCCCOc1ccc(O)cc1)C(F)(F)F |
| 213 to 215 | CNC(=O)c1cc(=O)c(-c2ccc(OC)c(OC)c2)co1 |
| 75 to 77 | CCCCCCCCCCCCCCOc1ccc(CCNC(=O)Cc2cccc(CBr)c2)cc1 |
| 220 | COc1ccc(-c2cc[nH]c(=O)n2)cc1OC1CC2CCC1C2 (stereo not given) |
| 189 | CCNC(=O)Cc1cc(Oc2ccc(C(F)(F)F)cc2Cl)ccc1[N+](=O)[O-] |
| 186 | O=C(O)c1ncsc1-c1cccc(I)c1 |
| 97 to 100 | CCSc1ccc(N)c(C(=O)O)c1 |
| 123 to 124 | CCN1CCN(C(=O)c2ccc(N)cc2Cl)CC1 |
| 191 to 195 | CSC(=NS(=O)(=O)c1ccc(C)cc1)N1CCc2nc(N)sc2C1 |
| 174 to 177 | Cc1ncc(CSC(=O)c2ccccc2)c(CO)c1O |
| 99 to 100 | CCCCCCCCCCCCCCCCCCC1CNCCNCCNCCNCCN1 (stereo not given) |
| 189 to 191 | COc1ccc(S(=O)(=O)N2C(=O)C(c3ccccc3OC)(N3C[C@H](OC)C[C@H]3C(=O)N(C)C)c3cc(Cl)ccc32)c(OC)c1 (stereo not given in full) |
| 229 | Cc1cc2cc(CN3CCC(C(=O)N(C)C)CC3)cnc2cc1NC(=O)c1ccc(-c2ccc(F)cc2)cc1 |
| 238 to 240 | CC(C)(C)c1n[nH]c(SCCNC(=O)Nc2ccc(C(F)(F)F)cc2)n1 |
| 102 to 104 | CS(=O)(=O)c1ccc(Oc2ccc(Cl)c(Cl)c2)c(Cl)c1 |
| 152 to 155 | CC(C)c1cccc(C(C)C)c1NC(=O)Nc1c(-c2cccc(O)c2)c2cccnc2n(C)c1=O |
| 161 to 162 | CC(NC(=O)CC(CNC(=O)OC(C)(C)C)c1ccc(Cl)c(Cl)c1)c1ccccc1 (stereo not given) |
| 108 to 109 | CC1NC(=NC2CNCCO2)N(CCO)C1C (stereo not given) |
| 159 | COc1ccc(CNC(=O)n2cc(F)c(=O)[nH]c2=O)c(OC)c1OC |
| 64 to 66 | N#Cc1c(-c2ccc(OCc3ccccc3)cc2)[nH]c2ccc(OCc3ccccc3)cc12 |
| 108 | Cc1cc(-n2cncn2)c2cccc(OCc3c(Cl)ccc(S(=O)(=O)N4CCC[C@H]4C(=O)N4CCN(c5ccccn5)CC4)c3Cl)c2n1 |
| 128 to 129 | CCCc1cccc2c(C=O)cc(OC)c(O)c12 |

| melting point [°C] | SMILES |
| --- | --- |
| > 300 | Cn1cnc2nc(C=Cc3ccc(Cl)cc3)nn2c1=S |
| 159 to 161 | CCOc1cccc2c1OC(C(F)(F)F)C(C(=O)O)=C2 (stereo not given) |
| 85 to 87 | CCCCCN(CC(=O)OC(C)(C)C)C(=O)C(CCC(=O)OC)CS(=O)(=O)c1ccc2ccccc2c1 (stereo not given) |
| 98 to 99 | CCCCCCCC(=N)NC(=S)Nc1ccc(Cl)cc1 |
| 182 to 185 | NNc1ccc(-c2nnn(Cc3ccccc3)n2)cc1 |
| 232 to 235 | O=C(NC(=O)c1c(F)cccc1F)Nc1ccc(Br)cn1 |
| 159 | O=S(=O)(c1ccc(Cl)cc1)N1CCCC1c1ccc(Cl)cc1 (racemic) |
| 267 to 270 | Cc1cc(C)cc(-c2nc(NC(=O)c3cccnc3)sc2-c2ccncc2)c1 |
| 85 | COC(=O)COc1ccc(C(=O)c2cccs2)c2c1CCCC2 |
| 73 to 74 | CCN(CC)C(=O)CCCOc1ccc(Oc2ccccc2)cc1 |
| 176 to 177 | CC(=O)OC1C(C)OC(n2cc(F)c(=O)[nH]c2=O)C1OC(C)=O (stereo not given) |
| 208 to 211 | COc1ccc2cc(C(=O)O)oc2c1 |
| 189 to 191 | Nc1cccc(-c2ccc(CCN3CCN(c4cccc(C(F)(F)F)c4)CC3)cc2)n1 |
| 173 to 175 | COC(=O)/C=C/c1ccc(N)nc1 |
| 157 to 159 | CCC(OC(C)=O)c1ccc(Cl)c2nc3n(c12)CCCN3c1ncc(Cl)cc1Cl (stereo not given) |
| 288 to 290 | CCn1cc(C(=O)O)c(=O)c2cc(N)c(-c3cc(C)nc(C)c3)cc21 |
| 101 to 102 | COC(=O)c1ccc(OCCCc2ccccc2)cc1O |
| 51 | CC[C@H]1CC[C@H](c2ccc(CCc3ccc(OC(F)F)cc3)cc2)CC1 |
| 216 to 218 | Cn1c(CO)nc2c(N)cc(Br)cc21 |
| 149 | C[C@@H](NC(=O)c1[nH]c2ccc(Cl)cc2c1S(=O)(=O)c1ccccc1)c1ccccc1 |
| 243 to 244 | O=C(O)Cn1c(=O)c2cc(Cc3ncc[nH]3)ccc2n(Cc2ccc(Cl)c(Cl)c2)c1=O |
| 220 | Cn1nnc2cc(OC3SCC(O)C(O)C3O)ccc21 (stereo not given) |
| 130 to 135 | CC1(C)Oc2ccc(C#N)cc2C(NC(=O)Nc2cccc(-c3ncco3)c2)C1O (stereo not given) |
| 121 to 123 | C#CCNC(=C[N+](=O)[O-])NCCSCc1nccs1 |

| melting point [°C] | SMILES |
| --- | --- |
| 110 | CN(C)CCOc1ccccc1NC(=O)c1cccc2[nH]ccc12 |
| 62 to 64 | O=c1oc2ccccc2n1CCCCl |
| 179 to 180 | CC(C)(C)OC(=O)n1cccc1-c1ccc2c(c1)C1(CCCC1)C(=O)N2 |
| 220 to 221 | ON=C1Cc2ccccc2C(=NO)c2ccccc21 |
| 108 to 109 | C=CS(=O)CCNC(=O)CCS(=O)(=O)CCCl (stereo not given) |
| 132 to 136 | C[C@@H](n1cnc2cc(-c3ccc(Cl)cc3)sc2c1=O)[C@](O)(Cn1cncn1)c1ccc(Cl)cc1Cl |
| 58 to 65 | CC(C)(C)OC(=O)N1C(CC2CCCCC2)C(C(O)CNS(=O)(=O)C(c2ccccc2)c2ccccc2)OC1(C)C (stereo not given) |
| 215 to 243 | CC(=NO)c1cnc2c(NC(=O)c3c(Cl)cccc3Cl)cccc2c1 |
| 133 to 134 | COC(=O)CCn1c(=O)n(CCN2CCN(c3ccccc3)CC2)c(=O)c2cscc21 |
| 225 to 228 | CC1(C)CNC(=S)NC1 |
| 185 to 192 | COc1cc(NC(=O)C(C#N)=CNc2ccc(OC)c(OCCCCl)c2)c(Cl)cc1Cl |
| 89 to 91 | CCCNC(=O)n1nc(Oc2c(Cl)cc(C(F)(F)F)cc2Cl)cc1C(Cl)(Cl)Cl |
| 79 to 81 | CCCCOC(=O)Cc1nc(-c2ccc(Cl)cc2)oc1-c1ccsc1 |
| 180 to 182 | COc1ccc(N(S(=O)(=O)c2ccc(C)cc2)S(=O)(=O)c2ccc(C)cc2)c([N+](=O)[O-])c1 |
| 154 to 155 | COCC(=O)Nc1cc(C(=O)OC)c(O)c2ncc(Cc3ccc(F)cc3)cc12 |
| 174 to 176 | CC(Oc1cccc2c1C(=O)N(C1CCC(=O)NC1=O)C2=O)c1ccc2ccccc2c1 (stereo not given) |
| 300 to 303 | COc1cc(Cl)ccc1-c1nc2cc3c(cc2[nH]1)C(C)(C)CC(=O)N3 |
| 73 to 77 | O=C(O)CCCOc1cccc(CN2CCCCC2)c1 |
| 184 to 187 | CC(O)=C(C#N)C(=O)Nc1cccc(Cl)c1 |
| 272 to 273 | NC(=O)c1[nH]c2ccc(Cl)cc2c1S(=O)(=O)c1cccc(Cl)c1 |
| > 310 | Nc1ccc(CCc2n[nH]c3c2c(=O)n(-c2ccccc2)c2ncccc32)cc1 |
| 186 to 190 | CC(C)(C)C(=O)Nc1nc2[nH]c3cccc(Cl)c3c2c(=O)[nH]1 |
| 71 to 72 | CCOC(=O)C(O)(Cc1ccc2ccccc2n1)C(=O)OCC |
| 178 to 180 | Nc1nc(C2CCN(C(=O)Nc3ccccc3)CC2)c2ccccc2n1 |

| melting point [°C] | SMILES |
| --- | --- |
| 87 to 89 | Cc1c(SCc2ccco2)ccnc1CSc1nc2ccccc2n1CCN(C)C |
| 99 to 100 | Oc1cccc2csnc12 |
| 144 to 145 | COc1ccc(S(=O)(=O)N2C(=O)C(O[Si](C)(C)C)(c3ccccc3C(F)(F)F)c3cc(Cl)ccc32)c(OC)c1 (stereo not given) |
| 91 to 96 | CC(C)C[C@H](NC(=O)CCCc1ccccc1)C(=O)N[C@@H](C(C)C)[C@@H](O)c1c(-c2ccccc2)c1=O |
| 170 to 172 | CCCCNS(=O)(=O)CC(O)C(O)C(CC1CCCCC1)NC(=O)c1ccnnc1 (stereo not given) |
| 78 to 81 | O=C(c1ccccc1F)c1cc(Cl)ccc1I |
| 136 to 137 | CC(C)(C)OC(=O)N1CC[C@H](c2ccc(OCC3OCCO3)cc2)[C@@H](O)C1 (racemic) |
| 192 to 194 | CC1(C)CCOC1=C(n1ccnc1)S(=O)(=O)c1ccc(Cl)cc1 |
| 158 | Oc1ccc(Oc2cncnc2)cc1 |
| 86 to 88 | CCOC(=O)CS(=O)(=O)N(Cc1ccc(Cl)cc1)c1ccccc1CC(=O)OC |
| 87 to 88 | CCCCOCCOc1ccc(-c2ccc(N3CCCC3)c(C(C)=O)c2)cc1 |
| 39 to 40 | Cc1nc(N2CCCC(NCc3ccc(C(F)(F)F)cc3)C2=O)sc1C(=O)NCc1ccccc1 (stereo not given) |
| 153 to 154 | Cc1c(C)c2c(c(C)c1NC(=O)CC(C)(C)C)C(c1ccc(CC(C)C)cc1)CO2 (stereo not given) |
| 173 to 175 | CCOC(=O)c1sc2nc(-c3ccccc3)cnc2c1N |
| > 300 | N#Cc1cc2nc(O)c(O)nc2cc1C#N |
| > 300 | O=C1Nc2ccc(C(F)(F)F)cc2C1c1ncnc2c1cnn2C1CCCC1 (stereo not given) |
| 186 to 187 | CCc1cccc(CC)c1NC(=O)Nc1cnc(C)nc1-c1ccccc1Cl |
| 106 to 107 | COc1cccc(C(C(N)=O)(c2c(Cl)cncc2Cl)C2CCCC2)c1 (stereo not given) |
| 121 to 122 | CC(C)(C)[Si](C)(C)OC1CN(c2ccc(N3C[C@H](CN=[N+]=[N-])OC3=O)cc2F)C1 |
| 126 | COc1c(CBr)c(OC)c(CBr)c(OC)c1CBr |
| 107 to 108 | Cc1oc(C=Cc2cccc(C(F)(F)F)c2)nc1CC#N |
| 155 to 156 | CC(=O)NCc1ccc(CN2CCN(c3ccc(Cl)cn3)CC2)cc1 |

| SMILES | melting point [°C] |
| --- | --- |
| Cn1cncc1C(c1ccc(Cl)cc1)c1ccc2c(c1)C(c1cccc(Cl)c1)SCCC(=O)N2 (stereo not given) | 199 |
| CC(C)NC(=O)c1cc2[nH]cnc2c(Cl)c1NC(=O)c1cc(C(F)(F)F)nn1-c1ncccc1Cl | 200 to 203 |
| C=CCc1cc(OCCOC)ccc1OCC1(O)CN2CCC1CC2 (stereo not given) | 58 to 60 |
| C#Cc1c(C#N)nn(-c2c(Cl)cc(C(F)(F)F)cc2Cl)c1N(C)C | 145 to 147 |
| O=C(Cl)c1ccncc1 | 160 |
| N#Cc1nn(-c2c(Cl)cc(C(F)(F)F)cc2Cl)cc1C1(C(F)(F)C(F)(F)F)CC1 | 105 to 106 |
